Results from patent US20220168384A1, “Anti-Bacterial Combination Therapy” (McMaster University, priority 2019, published 2022).
Where two headings read alike, the source gives them in different places.

Legend:
P. aeruginosa PA14 [1] = experiment: Dose response and checkerboard assays against PA14; assay type: cell-based, Pseudomonas aeruginosa; conditions: for synergy with DSX: checkerboard of DSX with antibiotic
Procedure: Checkerboard assays were set-up using Nunc 96-well plates in an 8-well by 8-well format. Two columns were allocated for vehicle controls and two columns for sterility controls. Vehicle controls contained 2 μL DMSO plus 2 μL DFP solvent for checkerboards with TS and DFP or 4 μL DMSO for TS and DSX, in 146 μL of 10:90 medium or 10% serum inoculated with PA14 or PAO1-KP as described in Growth Curves. Sterile controls contained the same components in 10:90 medium or 10% serum, without cells. Serial dilutions of TS—with 17 μg/mL being the highest final concentration—were added along the y axis of the checkerboard (increasing concentration from bottom to top) whereas serial dilutions of DFP or DSX—with 512 μg/mL being the highest final concentration—were added along the x axis (increasing concentration from left to right). The final volume of each well was 150 μL and each checkerboard was repeated at least three times. Plates were incubated and the final OD600 determined as detailed above.
Culture conditions, growth assays, dose response and checkerboard assays using P. aeruginosa PA14 were performed as described in Example 1. Briefly, overnight cultures were grown in LB for 16 h, 37° C., 200 rpm then subcultured (1:500 dilution) into 10:90 for 6 h. Subcultures were standardized to OD600 of 0.10 and diluted 1:500 in fresh 10:90 before use. For the dose response assay, serial dilutions of compounds were added at 75 times the final concentration and diluted with 10:90 with cells to reach the desired final concentration. This was done in triplicate for technical replicates. Vehicle and sterile controls were included. The checkerboard assay was done similarly to the dose response assay but in an 8×8 format in a 96-well Nunc plate, with concentration of one drug increasing along the y-axis and the other along the x-axis. Sterility and vehicle controls were included with two columns allocated for each control. At least three biological replicates were repeated for the dose response and checkerboard assays.

P. aeruginosa PA14 [2] = experiment: Thiopeptide + DSX checkerboard and dose-response assays; assay type: cell-based, Pseudomonas aeruginosa; conditions: thiopeptide + DSX checkerboard, 10:90
Procedure: (§1) Culture conditions, checkerboard assays using P. aeruginosa PA14 and dose-response assays were performed as described in Example 1. In addition to TS, other thiopeptides tested were siomycin A (SM), thiocillin I (TC), micrococcin P1 (MC), nosiheptide (NH), berninamycin A (BER), and geninthiocin A (GEN). For dose response assays of the combinations conducted in 10:90, DSX concentration was constant at 64 μg/mL.

[3] = Qualitative assay for antibiotic-Fe3+ coloured complexes; assay type: physicochemical; conditions: stock antibiotic + FeCl3 final 10 μM; room temperature 1 h
Procedure: […]. Binding of iron by a compound causes spectral shifts that can detected visually. Five μL of stock concentration antibiotic was added to 5 μL of FeCl3 to a final FeCl3 concentration of 10 μM and incubated at room temperature for one hour. Negative controls without iron are indicated by a negative sign and droplets with FeCl3 are indicated with a positive sign; vehicle controls with Milli-Q H2O and DMSO were included.
Compounds were arrayed in Nunc 96 microwell plates. Vehicle controls contained Milli-Q H2O with 1:75 dilution of each compound at a final concentration of […]. The experimental set-up contained the same components as the vehicle control, with the addition of […] FeCl3. The final volume in each well was 150 μL. The plate was incubated at room temperature for one hour and absorption spectra from 300 nm to 700 nm was read in 2 nm increments (Multiskan Go—Thermo Fisher Scientific). […]

P. aeruginosa PA14 [4] = experiment: Checkerboards pinned to LB agar (bactericidal activity); assay type: cell-based, Pseudomonas aeruginosa; conditions: overnight 37° C.
Procedure: Checkerboards were pinned to LB agar plates using a sterile 96 pin tool. Plates were incubated overnight at 37° C. Independent experiments were conducted 3 times and a representative plate is shown.

[5] = system: P. aeruginosa clinical isolates; experiment: Clinical isolates testing, P. aeruginosa; assay type: cell-based, Pseudomonas aeruginosa
Procedure: Clinical isolates of P. aeruginosa and A. baumannii were inoculated from −80° C. stocks into 200 μL LB broth and grown with shaking at 200 rpm, 16 h, 37° C. in Nunc 96-well plates. The overnight cultures were subcultured (1:25 dilution) into 10:90 and grown with shaking at 200 rpm, 2 h, 37° C. Vehicle controls consisted of 4 μL of DMSO, 144 μL 10:90 and 2 μL of subculture. Sterile controls consisted of 4 μL of DMSO and 146 μL 10:90. […]. The final volume of each well was 150 μL and each checkerboard was repeated at least three times. Plates were incubated with shaking at 200 rpm, 16 h, 37° C. and OD600 was measured (Multiskan Go—Thermo Fisher Scientific). The results were plotted as percent of control (wells containing only DMSO) using Prism (GraphPad).
Clinical isolates were grown and tested as described in Example 1. Briefly, clinical isolates were inoculated from glycerol stocks stored at −80° C. into Nunc 96-well plates and grown overnight at 37° C., for 16 h with shaking in LB (200 rpm). Overnights were subcultured (1:25) into fresh 10:90 medium and grown for 2 h under the same growth conditions. Subcultures were diluted 1:75 in fresh 10:90. Compounds were diluted 1:75 to obtain the final concentration. DOXY and CLI were added at a final concentration of 1 μg/mL, CO was used at 2 μg/mL, TRO was used at 4 μg/mL, TS was used at 8.3 μg/mL, and DSX was used at 32 μg/mL. Vehicle and sterility controls were included. Plates were incubated overnight with the same conditions. The OD600 was read (Multiscan Go—Thermo Fisher Scientific), analyzed using Excel, and the data plotted using Prism (GraphPad).
as §1

[6] = UV-Vis absorption spectra assay for iron chelation; assay type: physicochemical; conditions: 300 μM compound and FeCl3; 300-700 nm; 1 h
Procedure: Equimolar concentrations of compound and FeCl3 were added in deionized H2O to a final concentration of 300 μM and a spectrum of wavelengths from 300 nm to 700 nm read after 1 h incubation at room temperature. The black dashed line is the spectrum of the compound in the absence of iron. The black solid line is the spectrum after the addition of iron. […] Chloramphenicol and ampicillin were used as negative controls. Each assay was performed at least 3 times and averaged values are shown.
Compounds were arrayed in Nunc 96 microwell plates. Vehicle controls contained Milli-Q H2O with 1:75 dilution of each compound at a final concentration of […]. The experimental set-up contained the same components as the vehicle control, with the addition of […] FeCl3. The final volume in each well was 150 μL. The plate was incubated at room temperature for one hour and absorption spectra from 300 nm to 700 nm was read in 2 nm increments (Multiskan Go—Thermo Fisher Scientific).

[7] = Chrome azurol S (CAS) plate assay; assay type: physicochemical; conditions: 10 μL of 2 mg/mL; room temperature 1 h
[8] = Pseudomonas aeruginosa, PA14, concentration used in clinical isolate testing, read-out: ⅛^th the MIC of PA14
[9] = checkerboard, IC50 isobolograms, PA14, 10:90

Compound: NC[C@H]1O[C@H](O[C@H]2[C@H](O)[C@@H](O[C@H]3O[C@H](CO)[C@@H](O)[C@H](N)[C@H]3O)[C@H](N)C[C@@H]2N)[C@H](N)C[C@@H]1O [tobramycin]
- synergy with DSX (P. aeruginosa PA14 [1]; PA14): No synergy

Compound: C/C=C(\NC(=O)c1csc(-c2csc(-c3ccc4c(n3)-c3csc(n3)[C@H]([C@@H](C)O)NC(=O)c3csc(n3)[C@H](C(C)(C)O)NC(=O)c3csc(n3)/C(=C/C)NC(=O)[C@H]([C@@H](C)O)NC(=O)c3csc-4n3)n2)n1)C(=O)NC[C@@H](C)O [TC, thiocillin I]
- synergy with DSX (P. aeruginosa PA14 [2]): synergize

Compound: O=C(O)c1cn(C2CC2)c2cc(N3CCNCC3)c(F)cc2c1=O [CIP, ciprofloxacin]
- synergy with DSX (P. aeruginosa PA14 [1]; PA14): No synergy
- colour change upon addition of FeCl3 [3]: formed orange complexes

Compound: O=C(N[C@H](CO)[C@H](O)c1ccc([N+](=O)[O-])cc1)C(Cl)Cl [Chloramphenicol]
- synergy with DSX (P. aeruginosa PA14 [1]; PA14): No synergy

Compound: O=P([O-])([O-])O[C@H]1[C@H](OP(=O)([O-])O)[C@H](OP(=O)([O-])[O-])[C@H](OP(=O)([O-])O)[C@@H](OP(=O)([O-])[O-])[C@@H]1OP(=O)([O-])O.[Na+].[Na+].[Na+].[Na+].[Na+].[Na+].[Na+].[Na+].[Na+] [sodium phytate, Sodium phytate]
- synergy with TS (P. aeruginosa PA14 [1]): None

Compound: O=[N+]([O-])[O-].O=[N+]([O-])[O-].O=[N+]([O-])[O-].[Ga+3] [GN, Gallium Nitrate]
- relative potency of synergy with TS (P. aeruginosa PA14 [1]): weakest
- synergy with TS (P. aeruginosa PA14 [1]): synergized

Compound: C[C@H]1c2cccc(O)c2C(=O)C2=C(O)[C@]3(O)C(=O)C(C(N)=O)=C(O)[C@@H](N(C)C)[C@@H]3[C@@H](O)[C@@H]21 [DOXY, Doxycycline]
- one-eighth of MIC against PA14 (test concentration) (P. aeruginosa PA14 [1]; [8]): 1 µg/mL

Compound: O=C(O)[C@H]1O[C@@H](Oc2cc3oc(-c4ccccc4)cc(=O)c3c(O)c2O)[C@H](O)[C@@H](O)[C@@H]1O [baicalin, Baicalin]
- synergy with TS (P. aeruginosa PA14 [1]; [9]): None

Compound: O=C(O[C@@H]1Cc2c(O)cc(O)cc2O[C@@H]1c1cc(O)c(O)c(O)c1)c1cc(O)c(O)c(O)c1 [epigallocatechin gallate, Epigallocatechin Gallate]
- synergy with TS (P. aeruginosa PA14 [1]; [9]): None

Compound: Cc1nc(C)c(C)nc1C [2,3,5,6-tetrametylpyrazine, 2,3,5,6-Tetramethylpyrazine]
- synergy with TS (P. aeruginosa PA14 [1]; [9]): None

Compound: O=c1cccccc1O [TRO, Tropolone]
- interaction with DSX (P. aeruginosa PA14 [1]; 2D checkerboard, PA14): indifferent
- MIC (P. aeruginosa PA14 [1]; [8]): 4 µg/mL
- effect of 100 μM Fe^3+ on inhibitory activity (P. aeruginosa PA14 [1]; VAN + compound checkerboards, PA14): abrogated
- synergy with TS (P. aeruginosa PA14 [1]; [9]): synergized
- relative potency of synergy with TS (P. aeruginosa PA14 [1]; checkerboards, isobolograms and CI values, PA14): greater synergy
- mode of activity of compound alone (P. aeruginosa PA14 [4]): bacteriostatic
- susceptibility of C0379 compared to PA14 [5]: less susceptible
- absorption spectrum after addition of FeCl3 [6]: showed shifts in their absorption spectra
- decolourization of CAS agar (relative affinity for iron) [7]: greatest decolourization

Compound: geninthiocin A
- synergy with DSX (P. aeruginosa PA14 [2]): did not synergize

Compound: COc1cc(Cc2cnc(N)nc2N)cc(OC)c1OC [Trimethoprim]
- colour change upon addition of FeCl3 [3]: turned golden-yellow

Compound: C=C(NC(=O)c1csc(-c2nc3c(cc2O)-c2nc(cs2)C(=O)NC(C(C)O)C(=O)N/C(=C\C)c2nc(cs2)C(=O)NC2CC(O)C(=O)OCc4cccc5[nH]c(c(C)c45)C(=O)SCC(NC(=O)c4csc2n4)c2nc-3cs2)n1)C(N)=O (stereo not shown) [NH, nosiheptide]
- synergy with DSX (P. aeruginosa PA14 [2]): synergize

Compound: COc1cc(/C=C/C(=O)O)ccc1O [ferulic acid, Ferulic Acid]
- synergy with TS (P. aeruginosa PA14 [1]; [9]): None

Compound: C=C(NC(=O)C(=C)NC(=O)c1ccc2c(n1)-c1coc(n1)C(=C)NC(=O)C(=C)NC(=O)c1nc(oc1C)C(=C)NC(=O)[C@H](C(C)(C)O)NC(=O)C(=C)NC(=O)c1nc(oc1C)/C(=C/C)NC(=O)[C@H]([C@@H](C)O)NC(=O)c1csc-2n1)C(N)=O [BER, berninamycin A]
- synergy with DSX (P. aeruginosa PA14 [2]): did not synergize

Compound: C=C(NC(=O)C(=C)NC(=O)c1csc(C2=N[C@@H]3c4csc(n4)[C@H]4NC(=O)c5csc(n5)[C@H]([C@](C)(O)[C@@H](C)O)NC(=O)[C@H]5CSC(=N5)/C(=C/C)NC(=O)[C@H]([C@@H](C)O)NC(=O)c5csc(n5)[C@]3(CC2)NC(=O)[C@H](C)NC(=O)C(=C)NC(=O)C(=C)NC(=O)[C@H](C(C)C)N[C@@H]2C=Cc3c([C@H](C)O)cc(nc3[C@H]2O)C(=O)O[C@@H]4C)n1)C(N)=O [SM, siomycin A]
- synergy with DSX (P. aeruginosa PA14 [2]): synergize

Compound: micrococcin P1 [MP]
- synergy with DSX (P. aeruginosa PA14 [2]): synergize

Compound: CO/N=C(\C(=O)N[C@@H]1C(=O)N2C(C(=O)O)=C(CSc3nc(=O)c(=O)[nH]n3C)CS[C@H]12)c1csc(N)n1 [Ceftriaxone, ceftriaxone]
- colour change upon addition of FeCl3 [3]: turned red
- absorption spectrum after addition of FeCl3 [6]: did not change

Compound: CCn1cc(C(=O)O)c(=O)c2cnc(N3CCNCC3)nc21 [Pipemidic acid]
- colour change upon addition of FeCl3 [3]: formed orange complexes
- absorption spectrum after addition of FeCl3 [6]: shifted

Compound: COc1cc(/C=C/C(=O)CC(=O)/C=C/c2ccc(O)c(OC)c2)ccc1O [Curcumin]
- synergy with TS (P. aeruginosa PA14 [1]; [9]): None

Compound: O=C(CCc1ccc(O)cc1)c1c(O)cc(O)cc1O [phloretin, Phloretin]
- synergy with TS (P. aeruginosa PA14 [1]; [9]): None
